Results from patent US11780826B2 (Amgen Inc., priority 2017, dated 2023).

System: Bovine cardiac myofibrils
Assay: In vitro model of dose-dependent myofibril ATPase modulation (AC1.4, pyruvate kinase/lactate dehydrogenase-coupled ATPase assay at pCa25)
Format: biochemical
Conditions: concentration at which ATPase activity was 1.4-fold higher than the bottom of the dose curve, mean of a minimum of two independent tests
Procedure, shortened: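 Compound dilutions were premixed with myofibrils, coupling enzymes, EGTA and CaCl2, then the reaction was started with an equal volume carrying ATP (final 1 mM), NADH and PEP. ATP turnover was followed at 340 nm, and dose responses were fit to a four-parameter equation.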

SMILES | AC1.4
COc1ccc(S(C)(=O)=O)cc1C(=O)N1[C@@H](C(=O)N[C@@H](c2ccc(C(F)(F)F)cc2F)C2CC2)C[C@H]2C[C@H]21 [Example 612, (1R,3R,5R)-N-((R)-cyclopropyl(2-fluoro-4-(trifluoromethyl)phenyl)methyl)-2-(2-methoxy-5-(methylsulfonyl)benzoyl)-2-azabicyclo[3.1.0]hexane-3-carboxamide] | 3.527 µM
N#CC1CN(S(=O)(=O)N2CCC[C@H](C(=O)N3CCC[C@@H]3C(=O)NCc3ccc(Cl)nc3)C2)C1 [Example 613, N-((6-chloro-3-pyridinyl)methyl)-1-(((3S)-1-((3-cyano-1-azetidinyl)sulfonyl)-3-piperidinyl)carbonyl)-D-prolinamide] | 3.8643 µM
COc1ccc(CNC(=O)[C@H]2CCCN2C(=O)[C@H]2CCCN(S(=O)(=O)N3CC(C#N)C3)C2)c(C)c1 [Example 614, 1-(((3S)-1-((3-cyano-1-azetidinyl)sulfonyl)-3-piperidinyl)carbonyl)-N-(4-methoxy-2-methylbenzyl)-D-prolinamide] | 3.8655 µM
O=C(N[C@@H](c1cc(F)c(C(F)(F)F)cc1F)C1CC1)[C@H]1C[C@H]2C[C@H]2N1C(=O)c1cccc(C(F)(F)F)n1 [Example 615, (1R,3R,5R)-N-((R)-cyclopropyl(2,5-difluoro-4-(trifluoromethyl)phenyl)methyl)-2-((6-(trifluoromethyl)-2-pyridinyl)carbonyl)-2-azabicyclo[3.1.0]hexane-3-carboxamide] | 3.8905 µM
CCS(=O)(=O)c1cccc(C(=O)N2[C@@H](C(=O)NCc3cc(F)c(Cl)cc3F)C[C@H]3C[C@H]32)c1 [Example 617, (1R,3R,5R)-N-(4-chloro-2,5-difluorobenzyl)-2-(3-(ethylsulfonyl)benzoyl)-2-azabicyclo[3.1.0]hexane-3-carboxamide] | 3.626 µM
Cc1ccc(Cl)cc1CNC(=O)[C@H]1CCCN1C(=O)[C@H]1CCCN(S(=O)(=O)N2CC(C#N)C2)C1 [Example 618, N-(5-chloro-2-methylbenzyl)-1-(((3S)-1-((3-cyano-1-azetidinyl)sulfonyl)-3-piperidinyl)carbonyl)-D-prolinamide] | 3.9205 µM
CS(=O)(=O)c1cccc(C(=O)N2C[C@H](F)C[C@@H]2C(=O)N[C@@H](c2ccc(C(F)(F)F)cc2F)C2CC2)c1 [Example 619, (4R)-N-((R)-cyclopropyl(2-fluoro-4-(trifluoromethyl)phenyl)methyl)-4-fluoro-1-(3-(methylsulfonyl)benzoyl)-D-prolinamide] | 3.929 µM
N#CC1CC(S(=O)(=O)c2cccc(C(=O)N3CCCC[C@@H]3C(=O)NCc3ccc(Cl)nc3)c2)C1 (stereo partly drawn) [Example 620, (2R)-N-((6-chloro-3-pyridinyl)methyl)-1-((3-((cis-3-cyanocyclobutyl)sulfonyl)phenyl)carbonyl)-2-piperidinecarboxamide,(2R)-N-((6-chloro-3-pyridinyl)methyl)-1-((3-((trans-3-cyanocyclobutyl)sulfonyl)phenyl)carbonyl)-2-piperidinecarboxamide] | 3.94 µM
Cc1cc(C(=O)N2[C@@H](C(=O)N[C@@H](c3cc(F)c(Cl)cc3F)C3COC3)C[C@H]3C[C@H]32)ccn1 [Example 621, (1R,3R,5R)-N-((R)-(4-chloro-2,5-difluorophenyl)(3-oxetanyl)methyl)-2-((2-methyl-4-pyridinyl)carbonyl)-2-azabicyclo[3.1.0]hexane-3-carboxamide] | 3.9478 µM
COc1cc2c(cc1F)CCC2NC(=O)[C@H]1CCCN1C(=O)[C@H]1CCCN(S(=O)(=O)N2CC(C#N)C2)C1 (stereo partly drawn) [Example 622, (2R)-1-((S)-1-((3-cyanoazetidin-1-yl)sulfonyl)piperidine-3-carbonyl)-N-(5-fluoro-6-methoxy-2,3-dihydro-1H-inden-1-yl)pyrrolidine-2-carboxamide] | 3.9515 µM
N#CC1CN(S(=O)(=O)N2CCC[C@H](C(=O)N3CCC[C@@H]3C(=O)NCc3c(F)c(F)cc(F)c3F)C2)C1 [Example 623, 1-(((3S)-1-((3-cyano-1-azetidinyl)sulfonyl)-3-piperidinyl)carbonyl)-N-(2,3,5,6-tetrafluorobenzyl)-D-prolinamide] | 3.975 µM
CCC(NC(=O)[C@H]1CCCN1C(=O)[C@H]1CCCN(S(=O)(=O)N2CC(C#N)C2)C1)c1ccc(OC)cc1 (stereo partly drawn) [Example 625, (2R)-1-((S)-1-((3-cyanoazetidin-1-yl)sulfonyl)piperidine-3-carbonyl)-N-(1-(4-methoxyphenyl)propyl)pyrrolidine-2-carboxamide] | 4.01 µM
NC(=O)[C@H]1C[C@H](S(=O)(=O)N2CCC[C@H](C(=O)N3CCC[C@@H]3C(=O)NCc3ccc(C(F)(F)F)cc3)C2)C1 [Example 626, 1-(((3S)-1-((trans-3-carbamoylcyclobutyl)sulfonyl)-3-piperidinyl)carbonyl)-N-(4-(trifluoromethyl)benzyl)-D-prolinamide] | 4.031 µM

Now from value to molecule:

AC1.4 | SMILES
4.037 µM | CC(C)(C)[C@@H](NC(=O)[C@H]1CCCN1C(=O)c1cccc(S(=O)(=O)N2CC(C#N)C2)c1)c1ccc(C(F)(F)F)cc1 [Example 627, 1-(3-((3-cyano-1-azetidinyl)sulfonyl)benzoyl)-N-((1R)-2,2-dimethyl-1-(4-(trifluoromethyl)phenyl)propyl)-D-prolinamide]
4.051 µM | CC[C@H](NC(=O)[C@H]1CCCN1C(=O)c1cccc(S(=O)(=O)N(C)C)c1)c1ccc(Cl)c(F)c1 [Example 629, N-((1S)-1-(4-chloro-3-fluorophenyl)propyl)-1-(3-(dimethylsulfamoyl)benzoyl)-D-prolinamide]
3.9185 µM | CC[C@@H](NC(=O)[C@H]1CCCN1C(=O)c1cccc(S(C)(=O)=O)c1)c1ccc(C(F)(F)F)cc1F [Example 630, N-((1R)-1-(2-fluoro-4-(trifluoromethyl)phenyl)propyl)-1-(3-(methylsulfonyl)benzoyl)-D-prolinamide]
4.082 µM | O=C(NCc1ccc(C(F)(F)F)cc1)[C@H]1CCCN1C(=O)[C@H]1CCCN(S(=O)(=O)N2CC(O)C2)C1 [Example 631, 1-(((3S)-1-((3-hydroxy-1-azetidinyl)sulfonyl)-3-piperidinyl)carbonyl)-N-(4-(trifluoromethyl)benzyl)-D-prolinamide]
4.0915 µM | COc1cc(C(C)NC(=O)[C@H]2CCCN2C(=O)[C@H]2CCCN(S(=O)(=O)N3CC(C#N)C3)C2)ccc1OC(F)F (stereo partly drawn) [Example 632, (2R)-1-((S)-1-((3-cyanoazetidin-1-yl)sulfonyl)piperidine-3-carbonyl)-N-(1-(4-(difluoromethoxy)-3-methoxyphenyl)ethyl)pyrrolidine-2-carboxamide]
4.0935 µM | COc1ccc(F)cc1C(C)NC(=O)[C@H]1CCCN1C(=O)[C@H]1CCCN(S(=O)(=O)N2CC(C#N)C2)C1 (stereo partly drawn) [Example 633, (2R)-1-((S)-1-((3-cyanoazetidin-1-yl)sulfonyl)piperidine-3-carbonyl)-N-(1-(5-fluoro-2-methoxyphenyl)ethyl)pyrrolidine-2-carboxamide]
4.1045 µM | CN(C)S(=O)(=O)c1cccc(C(=O)N2CCC[C@@H]2C(=O)N[C@H](CO)c2ccc(Cl)c(F)c2)c1 [Example 634, N-((1S)-1-(4-chloro-3-fluorophenyl)-2-hydroxyethyl)-1-(3-(dimethylsulfamoyl)benzoyl)-D-prolinamide]
